In PMC7180948, “New Insights into 4-Anilinoquinazolines as Inhibitors of Cardiac Troponin I–Interacting Kinase (TNNi3K)” (Molecules, 2020) one finds inhibition data, which are given here for one compound.

Common to all, as to test: biochemical
Holding throughout (design): KINOMEscan competition binding panel (Eurofins DiscoverX), single concentration, percent inhibition
What all share (settings): read-out: 15 at 1 µM % inhibition

For assay [1], the target named is ERBB4 (Homo sapiens, UniProt Q15303). The method, boiled down:
(§1)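 Compounds were submitted at 1 µM to a KINOMEscan assay covering more than 400 human kinases. The screen served to define the selectivity profile.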

Assay [2] concerns the target ACVRL1 (Homo sapiens, UniProt P37023). The procedure, abridged: as §1
Assay [3] has as its target DDR2 (Homo sapiens, UniProt Q16832). The method, boiled down:
as §1

The target of assay [4] is PKMYT1 (Homo sapiens, UniProt Q99640). The procedure, abridged:
as §1

The target of assay [5] is T1, ABL1(Q252H)-phosphorylated (Homo sapiens, UniProt P00519, Q252H).
T1 construct: phosphorylated
The method, boiled down:
as §1

The target of assay [6] is FLT3-autoinhibited (Homo sapiens, UniProt P36888). The procedure, abridged: as §1
The target of assay [7] is SRPK1 (Homo sapiens, UniProt Q96SB4). The method, boiled down: as §1
For assay [8], the target named is BLK (Homo sapiens, UniProt P51451). The method, boiled down: as §1
The target of assay [9] is EPHA1 (Homo sapiens, UniProt P21709). The procedure, abridged:
as §1

Assay [10] has as its target ALK(C1156Y) (Homo sapiens, UniProt Q9UM73, C1156Y). The method, boiled down: as §1
In assay [11] the target is T2, ABL1(T315I)-phosphorylated (Homo sapiens, UniProt P00519, T315I).
T2 construct: phosphorylated
The method, boiled down: as §1

The target in assay [12] is LYN (Homo sapiens, UniProt P07948). The procedure, abridged: as §1
Assay [13] has as its target T3, ZAK (Homo sapiens, UniProt Q9NYL2).
T3 construct: gene MAP3K20
The procedure, abridged:
as §1

Assay [14] deals with MAP3K15 (Homo sapiens, UniProt Q6ZN16). The method, boiled down: as §1
Assay [15] deals with ULK1 (Homo sapiens, UniProt O75385). The method, boiled down:
as §1

Assay [16] concerns the target T4, YANK2 (Homo sapiens, UniProt Q9NY57).
T4 construct: gene STK32B
The procedure, abridged:
as §1

Assay [17] addresses T5, AMPK-alpha2 (Homo sapiens, UniProt P54646).
T5 construct: gene PRKAA2
The procedure, abridged: as §1

The target of assay [18] is T6, DRAK1 (Homo sapiens, UniProt Q9UEE5).
T6 construct: gene STK17A
The procedure, abridged:
as §1

For assay [19], the target named is TBK1 (Homo sapiens, UniProt Q9UHD2). The method, boiled down:
as §1

Assay [20] concerns the target GRK7 (Homo sapiens, UniProt Q8WTQ7). The method, boiled down: as §1
Assay [21] addresses STK16 (Homo sapiens, UniProt O75716). The procedure, abridged: as §1
The target in assay [22] is FLT4 (Homo sapiens, UniProt P35916). The procedure, abridged:
as §1

The target of assay [23] is ROCK1 (Homo sapiens, UniProt Q13464). The procedure, abridged: as §1
Assay [24] addresses T7, TRKA (Homo sapiens, UniProt P04629).
T7 construct: gene NTRK1
The procedure, abridged: as §1

Chain of SRPK1 (Q96SB4 whole entry): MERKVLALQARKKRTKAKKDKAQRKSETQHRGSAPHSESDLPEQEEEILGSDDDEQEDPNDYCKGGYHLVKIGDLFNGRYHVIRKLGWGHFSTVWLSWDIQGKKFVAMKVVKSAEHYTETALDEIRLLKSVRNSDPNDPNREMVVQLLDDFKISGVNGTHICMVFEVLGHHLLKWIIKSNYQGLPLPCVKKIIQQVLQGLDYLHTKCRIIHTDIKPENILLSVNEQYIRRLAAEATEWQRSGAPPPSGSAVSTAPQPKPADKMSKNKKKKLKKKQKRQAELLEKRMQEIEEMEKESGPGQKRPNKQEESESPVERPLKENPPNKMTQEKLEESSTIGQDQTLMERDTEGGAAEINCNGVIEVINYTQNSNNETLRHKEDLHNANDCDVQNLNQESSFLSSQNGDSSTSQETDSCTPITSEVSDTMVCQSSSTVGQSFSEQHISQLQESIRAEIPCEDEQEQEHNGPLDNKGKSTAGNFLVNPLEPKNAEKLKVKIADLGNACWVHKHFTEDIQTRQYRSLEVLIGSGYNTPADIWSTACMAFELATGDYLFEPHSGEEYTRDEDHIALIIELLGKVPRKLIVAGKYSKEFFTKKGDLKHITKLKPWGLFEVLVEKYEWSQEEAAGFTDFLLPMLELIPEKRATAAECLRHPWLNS
Chain of TBK1 (Q9UHD2 whole entry): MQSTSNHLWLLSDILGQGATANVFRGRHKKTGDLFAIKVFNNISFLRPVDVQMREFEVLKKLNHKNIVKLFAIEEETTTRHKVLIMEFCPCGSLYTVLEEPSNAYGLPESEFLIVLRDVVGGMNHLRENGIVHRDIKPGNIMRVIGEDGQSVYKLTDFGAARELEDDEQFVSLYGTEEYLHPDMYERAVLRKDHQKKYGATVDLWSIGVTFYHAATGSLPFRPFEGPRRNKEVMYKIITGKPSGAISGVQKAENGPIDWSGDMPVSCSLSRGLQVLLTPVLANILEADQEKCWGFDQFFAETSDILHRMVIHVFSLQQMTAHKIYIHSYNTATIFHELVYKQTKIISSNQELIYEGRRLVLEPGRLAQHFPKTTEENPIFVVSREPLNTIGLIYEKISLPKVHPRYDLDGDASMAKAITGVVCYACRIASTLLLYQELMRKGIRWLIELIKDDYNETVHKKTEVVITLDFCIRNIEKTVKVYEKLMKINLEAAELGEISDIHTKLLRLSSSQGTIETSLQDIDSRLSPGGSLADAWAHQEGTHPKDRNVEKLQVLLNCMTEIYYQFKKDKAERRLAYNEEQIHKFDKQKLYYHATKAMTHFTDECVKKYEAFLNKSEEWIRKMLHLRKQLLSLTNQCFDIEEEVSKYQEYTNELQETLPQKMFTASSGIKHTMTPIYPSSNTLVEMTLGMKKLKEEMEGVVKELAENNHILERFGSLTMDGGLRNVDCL
Chain of ERBB4 (Q15303 whole entry): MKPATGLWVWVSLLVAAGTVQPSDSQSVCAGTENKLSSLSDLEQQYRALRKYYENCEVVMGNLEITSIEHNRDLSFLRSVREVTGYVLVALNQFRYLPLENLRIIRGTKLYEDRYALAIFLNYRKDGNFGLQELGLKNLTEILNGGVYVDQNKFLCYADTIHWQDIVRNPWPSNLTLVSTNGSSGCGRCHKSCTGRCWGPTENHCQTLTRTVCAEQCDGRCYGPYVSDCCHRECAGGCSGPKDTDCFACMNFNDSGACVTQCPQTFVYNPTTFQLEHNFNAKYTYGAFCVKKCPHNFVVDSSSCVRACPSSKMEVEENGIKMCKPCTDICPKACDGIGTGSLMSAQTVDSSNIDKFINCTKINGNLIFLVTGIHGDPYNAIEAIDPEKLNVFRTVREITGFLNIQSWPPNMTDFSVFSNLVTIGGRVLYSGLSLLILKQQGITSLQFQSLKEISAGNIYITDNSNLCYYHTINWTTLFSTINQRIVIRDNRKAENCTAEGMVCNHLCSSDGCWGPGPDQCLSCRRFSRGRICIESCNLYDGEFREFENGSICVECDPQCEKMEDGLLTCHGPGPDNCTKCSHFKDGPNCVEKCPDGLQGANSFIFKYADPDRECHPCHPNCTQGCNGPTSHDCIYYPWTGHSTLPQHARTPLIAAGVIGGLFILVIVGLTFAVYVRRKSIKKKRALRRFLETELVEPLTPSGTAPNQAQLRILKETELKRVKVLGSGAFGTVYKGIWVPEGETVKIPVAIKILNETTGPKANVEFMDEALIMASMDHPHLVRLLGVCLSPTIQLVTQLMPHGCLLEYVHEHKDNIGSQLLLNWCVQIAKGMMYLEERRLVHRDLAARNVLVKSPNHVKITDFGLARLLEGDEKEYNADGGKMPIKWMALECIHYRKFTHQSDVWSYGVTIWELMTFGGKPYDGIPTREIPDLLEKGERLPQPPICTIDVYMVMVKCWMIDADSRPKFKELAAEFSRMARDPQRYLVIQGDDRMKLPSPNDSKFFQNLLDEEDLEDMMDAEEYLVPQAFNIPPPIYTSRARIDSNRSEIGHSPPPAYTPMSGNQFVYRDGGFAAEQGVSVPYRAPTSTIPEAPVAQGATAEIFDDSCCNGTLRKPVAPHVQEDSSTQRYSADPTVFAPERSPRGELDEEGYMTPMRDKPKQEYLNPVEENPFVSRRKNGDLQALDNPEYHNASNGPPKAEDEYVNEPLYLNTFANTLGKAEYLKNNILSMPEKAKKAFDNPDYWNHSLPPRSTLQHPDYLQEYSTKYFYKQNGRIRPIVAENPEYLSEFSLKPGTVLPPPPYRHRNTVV
Chain of EPHA1 (P21709 whole entry): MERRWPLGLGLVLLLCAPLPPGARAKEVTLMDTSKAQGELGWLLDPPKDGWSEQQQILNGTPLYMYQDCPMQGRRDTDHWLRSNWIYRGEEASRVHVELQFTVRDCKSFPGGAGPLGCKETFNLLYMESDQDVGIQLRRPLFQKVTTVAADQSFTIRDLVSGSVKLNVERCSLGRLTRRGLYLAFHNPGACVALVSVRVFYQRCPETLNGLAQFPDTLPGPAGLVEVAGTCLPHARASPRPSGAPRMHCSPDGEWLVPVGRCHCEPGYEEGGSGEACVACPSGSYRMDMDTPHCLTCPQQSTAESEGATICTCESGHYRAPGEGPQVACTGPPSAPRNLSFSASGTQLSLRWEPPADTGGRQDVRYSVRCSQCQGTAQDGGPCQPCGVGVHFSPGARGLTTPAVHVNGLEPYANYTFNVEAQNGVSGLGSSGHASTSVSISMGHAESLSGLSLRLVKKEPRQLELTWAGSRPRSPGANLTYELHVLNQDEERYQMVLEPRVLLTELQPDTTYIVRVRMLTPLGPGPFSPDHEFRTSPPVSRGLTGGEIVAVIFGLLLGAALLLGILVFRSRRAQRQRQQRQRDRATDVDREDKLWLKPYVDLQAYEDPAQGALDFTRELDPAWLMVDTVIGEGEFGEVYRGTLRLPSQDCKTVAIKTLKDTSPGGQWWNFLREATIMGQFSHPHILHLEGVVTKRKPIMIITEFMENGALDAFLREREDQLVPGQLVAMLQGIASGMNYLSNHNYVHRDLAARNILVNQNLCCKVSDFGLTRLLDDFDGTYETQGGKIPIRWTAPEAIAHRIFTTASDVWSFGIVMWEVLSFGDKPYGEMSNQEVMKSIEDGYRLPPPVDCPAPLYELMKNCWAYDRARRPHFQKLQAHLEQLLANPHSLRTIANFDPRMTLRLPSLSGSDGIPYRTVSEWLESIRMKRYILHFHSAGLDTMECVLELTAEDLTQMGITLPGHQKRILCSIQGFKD
T7 sequence (P04629 whole entry): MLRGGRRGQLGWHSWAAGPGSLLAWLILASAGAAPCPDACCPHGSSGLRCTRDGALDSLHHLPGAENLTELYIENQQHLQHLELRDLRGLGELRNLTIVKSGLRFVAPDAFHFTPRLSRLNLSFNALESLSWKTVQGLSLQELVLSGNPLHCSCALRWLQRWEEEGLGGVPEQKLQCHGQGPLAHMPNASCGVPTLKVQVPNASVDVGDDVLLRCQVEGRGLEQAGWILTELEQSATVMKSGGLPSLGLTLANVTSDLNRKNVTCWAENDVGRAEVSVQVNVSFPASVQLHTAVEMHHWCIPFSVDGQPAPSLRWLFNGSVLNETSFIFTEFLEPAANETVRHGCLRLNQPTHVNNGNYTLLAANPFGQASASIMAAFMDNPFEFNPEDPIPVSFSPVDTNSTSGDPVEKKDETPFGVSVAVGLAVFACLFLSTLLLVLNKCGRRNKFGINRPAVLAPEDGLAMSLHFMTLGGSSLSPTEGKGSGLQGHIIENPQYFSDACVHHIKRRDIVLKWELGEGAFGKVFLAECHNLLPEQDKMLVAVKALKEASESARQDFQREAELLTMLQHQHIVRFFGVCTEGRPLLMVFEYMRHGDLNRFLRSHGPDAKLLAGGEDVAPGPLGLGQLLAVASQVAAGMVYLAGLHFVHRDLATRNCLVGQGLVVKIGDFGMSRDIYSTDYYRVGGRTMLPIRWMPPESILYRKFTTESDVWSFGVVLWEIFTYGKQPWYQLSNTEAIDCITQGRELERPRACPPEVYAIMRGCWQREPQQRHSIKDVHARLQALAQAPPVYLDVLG
T5 sequence (P54646 whole entry): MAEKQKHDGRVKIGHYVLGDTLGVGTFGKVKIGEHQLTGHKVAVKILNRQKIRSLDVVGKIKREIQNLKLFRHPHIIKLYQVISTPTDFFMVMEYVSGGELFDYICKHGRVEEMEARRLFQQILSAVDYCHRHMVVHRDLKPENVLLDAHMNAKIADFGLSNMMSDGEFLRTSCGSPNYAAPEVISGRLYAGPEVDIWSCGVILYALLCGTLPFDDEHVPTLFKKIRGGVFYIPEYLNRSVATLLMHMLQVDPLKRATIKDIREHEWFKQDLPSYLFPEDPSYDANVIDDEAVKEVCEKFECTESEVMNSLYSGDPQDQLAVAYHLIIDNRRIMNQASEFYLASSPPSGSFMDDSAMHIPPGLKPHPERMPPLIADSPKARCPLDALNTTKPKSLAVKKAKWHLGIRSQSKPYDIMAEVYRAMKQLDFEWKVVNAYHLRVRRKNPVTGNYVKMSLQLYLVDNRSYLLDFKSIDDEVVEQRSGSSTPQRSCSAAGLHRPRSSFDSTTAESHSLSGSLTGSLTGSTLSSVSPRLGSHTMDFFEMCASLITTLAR

For the compound `CNS(=O)(=O)c1ccc(N(C)C)c(Nc2nc(C)nc3cc(OC)c(OC)cc23)c1` [compound 15, 3-((6,7-dimethoxy-2-methylquinazolin-4-yl)amino)-4-(dimethylamino)-N-methylbenzenesulfonamide], the inhibition at 1 µM turned out to be 0% in [1]; 0% in [2]; 38% in assay [3]; 0% in [4]; 34% in assay [5]; 0% in [6]. For the same compound, the inhibition at 1 µM in assay [7] was 0%; in assay [8], 0%; in assay [9], 0%; in [10], 4%; in assay [11] it was 0%; in assay [12] it was 0%. Moreover, the inhibition at 1 µM was found to be 1% in assay [13]; 28% in assay [14]; 31% in assay [15]; 0% in assay [16]; 2% in [17]; 0% in assay [18]. The inhibition at 1 µM was found to be 0% in assay [19]; 13% in assay [20]; 2% in assay [21]; 0% in assay [22]; 34% in assay [23]; 37% in assay [24].

For orientation: inhibition means how much of the control response was suppressed.
